The experiment concerns HCV subgenomic replication. Briefly: Cell based HCV replication assay (subgenomic replicon in Huh-7 cells, NS3 Cell-ELISA). As to conditions: activity ranges. The method, boiled down: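 Huh-7 cells stably carrying the I377neo/NS3-3′/wt subgenomic replicon, seeded at 10^4 cells/well in DMEM/10% FCS and exposed to inhibitor for 96 h. NS3 expression was measured by Cell-ELISA (mAb 10E5/24, alkaline phosphatase, absorbance 405/620 nm), in duplicate. IC50 was fitted to the Hill equation, with background from parental Huh-7 cells.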
(A replicon is a self-replicating genome or part of one, used to study replication in cells.)

The mark [1] stands for this setting: Table 5, various macrocycles, read-out: IC50* (nM), Inhibition of HCV subgenomic replication.
[2] abbreviates: Table A, Huh-7 replicon cells, 96 hours, read-out: IC50 (nM), Inhibition of HCV subgenomic replication.
The mark [3] stands for this setting: Hepatitis C virus, Huh-7, Table 5, various macrocycles, read-out: IC50* (nM), Inhibition of HCV subgenomic replication.
[4] abbreviates: Table 2, various macrocycles, read-out: IC50* (nM), Inhibition of HCV subgenomic replication.
Where [5] appears, read: Hepatitis C virus, Huh-7, Table 3, various macrocycles, read-out: IC50* (nM), Inhibition of HCV subgenomic replication.
Setting [6] is: Table 4, various macrocycles, read-out: IC50* (nM), Inhibition of HCV subgenomic replication.
The mark [7] stands for this setting: Table 1, 16 membered macrocycles, read-out: IC50* (nM), Inhibition of HCV subgenomic replication.

Structures are written as SMILES. Where two headings read alike, the source gives them in different places.

Take `CN1CCN(C)[C@H]2COc3ccccc3-c3c(C4CCCC4)c4ccc(cc4n3C2)C(=O)NS(=O)(=O)N(C)CC1` [Example 518, (7R)-14-cyclopentyl-18,21,24-trimethyl-7,8-dihydro-6H-7,11-(epiminoethanoiminoethanoiminothioiminomethano)-indolo[1,2-e][1,5]benzoxazocin-15-one 17,17-dioxide]: the IC50 under setting [1] is below 25 nM. For `CNC(=O)CN1CCN(C)CCN(C)S(=O)(=O)NC(=O)c2ccc3c(C4CCCCC4)c4n(c3c2)CC1COc1ccccc1-4` [Compound A30, 2-[(7R)-14-cyclohexyl-18,21-dimethyl-17,17-dioxido-15-oxo-7,8-dihydro-6H-7,11-(epiminoethanoiminoethanoiminothioiminomethano)indolo[1,2-e][1,5]benzoxazocin-24-yl]-N-methylacetamide], the IC50 under setting [2] was in the range of 25 to 150 nM. As for `CCN1CCN(C)C2COc3ccccc3-c3c(C4CCCCC4)c4ccc(cc4n3C2)C(=O)NS(=O)(=O)N(C)CC1` [Compound A3, (7R)-14-cyclohexyl-21-ethyl-18,24-dimethyl-7,8-dihydro-6H-7,11-(epiminoethanoiminoethanoiminothioiminomethano)indolo[1,2-e][1,5]benzoxazocin-15-one 17,17-dioxide], under setting [2], the IC50 was below 25 nM. Take `CN1CC2CCN(CC2)S(=O)(=O)NC(=O)c2ccc3c([C@H]4CCCC[C@@H]4F)c4n(c3c2)CC(COc2ccccc2-4)C1` (single isomer, unassigned) [Example 503, 30-[(1R,2S) or (1S,2R)-2-fluorocyclohexyl]-22-methyl-18-oxa-2-thia-1,3,10,22-tetraazahexacyclo[22.2.2.1^5,9.1^8,11.1^10,20.0^12,17]hentriaconta-5(31),6,8,11(30),12,14,16-heptaen-4-one 2,2-dioxide]: under setting [3], the IC50 fell in the range of 25 to 150 nM. With `CN1CCN(C)C2COc3ccc(F)cc3-c3c(C4CCCCC4)c4ccc(cc4n3C2)C(=O)NS(=O)(=O)N(C)CC1` [Example 202, (7R)-14-cyclohexyl-2-fluoro-18,21,24-trimethyl-7,8-dihydro-6H-7,11-(epiminoethanoiminoethanoiminothioiminomethano)-indolo[1,2-e][1,5]benzoxazocin-15-one 17,17-dioxide], the IC50 under setting [4] is below 25 nM.

Take `Cc1cccc2c1OCC1Cn3c-2c(C2CCCCC2)c2ccc(cc23)C(=O)NS(=O)(=O)N(C)CCN(Cc2cnn(C)c2)CCN1C` [Example 517, (7R)-14-cyclohexyl-4,18,24-trimethyl-21-[(1-methyl-1H-pyrazol-4-yl)methyl]-7,8-dihydro-6H-7,11-(epiminoethanoiminoethanoiminothioiminomethano)-indolo[1,2-e][1,5]benzoxazocin-15-one 17,17-dioxide]: under setting [1], the IC50 was below 25 nM. For the compound `CN1CCCN(C)S(=O)(=O)NC(=O)c2ccc3c(C4CCCCC4F)c4n(c3c2)CC(CC1)COc1ccccc1-4` (single isomer, unassigned) [Example 501, 14-[(1R,2S) or (1S,2R)-2-fluorocyclohexyl]-18,22-dimethyl-7,8-dihydro-6H-7,11-(ethanoiminopropanoiminothioiminomethano)indolo[1,2-e][1,5]benzoxazocin-15-one 17,17-dioxide], the IC50 under setting [1] lay within 25 to 150 nM.

Take `COc1cccc2c1OCC1CCCN(C)CCN(C)S(=O)(=O)NC(=O)c3ccc4c(C5CCCCC5)c-2n(c4c3)C1` [Example 510, (7R)-14-cyclohexyl-4-methoxy-18,21-dimethyl-7,8-dihydro-6H-7,11-(propanoiminoethanoiminothioiminomethano)indolo[1,2-e][1,5]benzoxazocin-15-one 17,17-dioxide]: the IC50 under setting [1] is below 25 nM. As for `CN1[C@H]2CCN(CCN(C)S(=O)(=O)NC(=O)c3ccc4c(C5CCCCC5)c5n(c4c3)C[C@@H]1COc1ccccc1-5)C2` [Compound A21, (16S,18R)-29-cyclohexyl-10,17-dimethyl-20-oxa-9-thia-1,8,10,13,17-pentaazahexacyclo[16.9.1.1^2,6.1^3,27.1^13,16.0^21,26]hentriaconta-2(31),3,5,21,23,25,27(29)-heptaen-7-one 9,9-dioxide], the IC50 (Hepatitis C virus, Table A, Huh-7 replicon cells, 96 hours, read-out: IC50 (nM), Inhibition of HCV subgenomic replication) is below 25 nM.

Regarding `O=C1NS(=O)(=O)N2CCCN(CCN(Cc3ccccc3)[C@H]3COc4ccccc4-c4c(C5CCCCC5)c5ccc1cc5n4C3)CC2` [Example 309, (20R)-21-benzyl-31-cyclohexyl-18-oxa-2-thia-1,3,10,21,24-pentaazahexacyclo[22.3.2.1^5,9.1^8,11.1^10,20.0^12,17]dotriaconta-5(32),6,8,11(31),12,14,16-heptaen-4-one 2,2-dioxide], the IC50 under setting [5] lay within 150 to 500 nM. As for `CC(C)N1CCN(C)C2COc3c(F)cccc3-c3c(C4CCCCC4)c4ccc(cc4n3C2)C(=O)NS(=O)(=O)N(C)CC1` [Example 405, (7R)-14-cyclohexyl-4-fluoro-21-isopropyl-18,24-dimethyl-7,8-dihydro-6H-7,11-(epiminoethanoiminoethanoiminothioiminomethano)-indolo[1,2-e][1,5]benzoxazocin-15-one 17,17-dioxide], the IC50 under setting [6] was below 25 nM. Take `CN1C2CCN(CCC3COc4ccccc4-c4c(C5CCCCC5)c5ccc(cc5n4C3)C(=O)NS1(=O)=O)CC2` (stereo not drawn) [Example 504, 30-cyclohexyl-23-methyl-6-oxa-22-thia-1,14,21,23-tetraazahexacyclo[22.2.2.1^4,14.1^13,16.1^15,19.0^7,12]hentriaconta-7,9,11,13(30),15(29),16,18-heptaen-20-one 22,22-dioxide]: the IC50 under setting [3] lay in the range of 25 to 150 nM. `CN1CCCN(C)S(=O)(=O)NC(=O)c2ccc3c(C4CCCCC4)c4n(c3c2)CC(CC1)COc1ccccc1-4` (stereo not drawn) [Example 101, 14-cyclohexyl-18,22-dimethyl-7,8-dihydro-6H-7,11-(ethanoiminopropanoiminothioiminomethano)indolo[1,2-e][1,5]benzoxazocin-15-one 17,17-dioxide]: the IC50 under setting [7] was 25 to 150 nM. For `CN1CCN2CCCN(CC2)S(=O)(=O)NC(=O)c2ccc3c(C4CCCCC4)c4n(c3c2)C[C@@H]1COc1ccccc1-4` [Example 304, (20R)-31-cyclohexyl-21-methyl-18-oxa-2-thia-1,3,10,21,24-pentaazahexacyclo[22.3.2.1^5,9.1^8,11.1^10,20.0^12,17]dotriaconta-5(32),6,8,11(31),12,14,16-heptaen-4-one 2,2-dioxide], the IC50 under setting [5] was below 25 nM. For the compound `CN1CCOCCN(C)S(=O)(=O)NC(=O)c2ccc3c(C4CCCCC4)c4n(c3c2)C[C@@H]1COc1ccccc1-4` [Compound A20, (7R)-14-cyclohexyl-18,24-dimethyl-7,8-dihydro-6H-7,11-(epiminoethanooxyethanoiminothioiminomethano)indolo[1,2-e][1,5]benzoxazocin-15-one 17,17-dioxide], the IC50 under setting [2] was 25 to 150 nM.

As for `CCN1CCN(CCN(C)C)C2COc3c(C)cccc3-c3c(C4CCCCC4)c4ccc(cc4n3C2)C(=O)NS(=O)(=O)N(C)CC1` [Example 219, (7R)-14-cyclohexyl-24-[2-(dimethylamino)ethyl]-21-ethyl-4,18-dimethyl-7,8-dihydro-6H-7,11-(epiminoethanoiminoethanoiminothioiminomethano)-indolo[1,2-e][1,5]benzoxazocin-15-one 17,17-dioxide], under setting [4], the IC50 was below 25 nM. In the case of `CN1CCN(CCO)CCN(C)S(=O)(=O)NC(=O)c2ccc3c(C4CCCCC4)c4n(c3c2)CC1COc1ccccc1-4` [Example 103, (7R)-14-cyclohexyl-21-(2-hydroxyethyl)-18,24-dimethyl-7,8-dihydro-6H-7,11-(epiminoethanoiminoethanoiminothioiminomethano)-indolo[1,2-e][1,5]benzoxazocin-15-one 17,17-dioxide], under setting [7], the IC50 is below 25 nM.

With `Cc1cccc2c1OCC1Cn3c-2c(C2CCCCC2)c2ccc(cc23)C(=O)NS(=O)(=O)N(C)CCN(CC(=O)N(C)C)CCN1C` [Example 514, 2-[(7R)-14-cyclohexyl-4,18,24-trimethyl-17,17-dioxido-15-oxo-7,8-dihydro-6H-7,11-(epiminoethanoiminoethanoiminothioiminomethano)-indolo[1,2-e][1,5]benzoxazocin-21-yl]-N,N-dimethylacetamide], under setting [1], the IC50 is below 25 nM. In the case of `CN(C)CCN1CCOC2CCN(CC2)S(=O)(=O)NC(=O)c2ccc3c(C4CCCCC4)c4n(c3c2)C[C@@H]1COc1ccccc1-4` [Example 307, (20R)-31-cyclohexyl-21-[2-(dimethylamino)ethyl]-18,24-dioxa-2-thia-1,3,10,21-tetraazahexacyclo[23.2.2.1^5,9.1^8,11.1^10,20.0^12,17]dotriaconta-5(32),6,8,11(31),12,14,16-heptaen-4-one 2,2-dioxide], the IC50 under setting [5] was 150 to 500 nM. `CN(C)CCN1CCOCCN(C)S(=O)(=O)NC(=O)c2ccc3c(C4CCCCC4)c4n(c3c2)CC1COc1ccccc1-4` [Example 402, (7R)-14-cyclohexyl-24-[2-(dimethylamino)ethyl]-18-methyl-7,8-dihydro-6H-7,11-(epiminoethanooxyethanoiminothioiminomethano)indolo[1,2-e][1,5]benzoxazocin-15-one 17,17-dioxide]: the 50% inhibitory concentration (IC50) under setting [6] is below 25 nM. For `CN1CCN(C)[C@H]2COc3c(OCc4ccccc4)cccc3-c3c(C4CCCCC4)c4ccc(cc4n3C2)C(=O)NS(=O)(=O)N(C)CC1` [Example 411, (7R)-4-(benzyloxy)-14-cyclohexyl-18,21,24-trimethyl-7,8-dihydro-6H-7,11-(epiminoethanoiminoethanoiminothioiminomethano)-indolo[1,2-e][1,5]benzoxazocin-15-one 17,17-dioxide], the IC50 under setting [6] lay within 25 to 150 nM.

As usually defined, the IC50 is the point on the concentration scale where inhibition reaches its midpoint.

The values above are taken from patent US7989438B2, “Therapeutic compounds” (Istituto di Ricerche di Biologia Molecolare P. Angeletti SpA, priority 2007, dated 2011).
